Like-named read-outs stand apart in the source and are kept apart here.
Legend:
HT29 = assay: In vitro cytotoxicity, HT29; type: cell-based, human
Method: A number of commercially available and privately-acquired tumor cell lines were initially surveyed for their sensitivity to various platinum agents, including oxaliplatin. […] The cell lines were also surveyed for sensitivity to 5FU.
Two studies of the novel liposome formulation containing oxaliplatin were conducted in this tumor model.

HCT-116 cells = assay: In vitro cytotoxicity survey, HCT-116; type: cell-based, human; details: 72 h
Method: (§1) A number of commercially available and privately-acquired tumor cell lines were initially surveyed for their sensitivity to various platinum agents, including oxaliplatin. […] The cell lines were also surveyed for sensitivity to 5FU. […] Additionally, literature survey was conducted in search of in vitro-generated oxaliplatin-resistant colorectal cell lines to potentially include pre-clinical pharmacology studies in an effort to show improved sensitivity of these cells to a liposomal vs. free oxaliplatin treatment. From this survey, […] other oxaliplatin-resistant colorectal tumor lines were identified; HT29 (Plascencia et al., 2006; Yang et al., 2006), and DLD-1 (Kashiwagi et al., 2011).

[1] = tested on: KB (epidermoid oral carcinoma human tumor) cells; assay: In vitro cytotoxicity, KB cells
Method: (§2) Prior to initiation of this study, oxaliplatin was evaluated for drug tolerance in non-tumor bearing immunodeficient mice.

[2] = Drug tolerance in non-tumor bearing immunodeficient mice; type: in vivo
Method: as §2

KB xenograft tumors = assay: Single-dose efficacy in mice bearing KB xenografts; type: in vivo, nude mice; details: 15 mg/kg
Description: One-way ANOVA followed by Neuman-Keuls post hoc test.

[3] = pure lipid; cited from earlier work
[4] = tested on: human colon tumor cell lines; assay: In vitro cytotoxicity survey, panel of human colon tumor cell lines; type: cell-based; details: HT-29, all cell lines tested except HT29, 72 h
Method: as §1

## O=C1[O][Pt]2([NH][C@@H]3CCCC[C@H]3[NH]2)[O]C1=O [oxaliplatin, [(1R,2R)-cyclohexane-1,2-diamine](ethanedioato-O,O′)platinum(II)]
HT29; HT29 and several other cell lines, 72 h
  IC50: 5 to 10 µM
HT29; HT29 cell line used in the present studies
  IC50: 5.4 µM
HCT-116 cells
  IC50: 0.4 µM
[1]; KB cell-line, 72 h
  IC50: 5.4 µM
[1]; KB cells, cytotoxicity testing prior to injection
  IC50: 5.3 µM
[2]; doses above 15 mg/kg (i.e., 20 mg/kg)
  drug tolerance (in words): dehydration and unacceptable gross body weight losses
[2]; mice
  maximum tolerated dose (MTD): 15 mg/kg
KB xenograft tumors
  tumor growth and survival compared to saline control (in words): did not significantly inhibit tumor growth or increase survival
KB xenograft tumors; KB xenografts
  Median Survival: 25.5
  TGI: 0%

## N.N.[Cl][Pt][Cl] [cisplatin]
[1]; read-out: sensitivity (IC50), KB cell-line
  IC50: 4 µM

## CCCCCCCC/C=C\CCCCCCCC(=O)O[C@H](COC(=O)CCCCCCCCCCCCCCC)COP(=O)([O-])OCC[N+](C)(C)C [POPC, 1-palmitoyl-2-oleoyl-sn-glycero-3-phosphocholine]
[3]
  gel-liquid crystalline thermal transition temperature: around −2 °C

## O=c1[nH]cc(F)c(=O)[nH]1 [Sample 5FU, 5-fluorouracil]
HT29; Homo sapiens, HT-29, HT29, 72 h
  IC50: > 50 µM
[4]
  IC50: 7 to 10 µM

— US20140271820A1, “LIPOSOME OXALIPLATIN COMPOSITIONS FOR CANCER THERAPY” (priority 2013, published 2014)
